Tests used:
[1] = molecular target: T1, rhesus brush border membrane vesicles (Macaca mulatta, UniProt A0MJA5); test: biochemical
T1 sequence (A0MJA5 1-1332): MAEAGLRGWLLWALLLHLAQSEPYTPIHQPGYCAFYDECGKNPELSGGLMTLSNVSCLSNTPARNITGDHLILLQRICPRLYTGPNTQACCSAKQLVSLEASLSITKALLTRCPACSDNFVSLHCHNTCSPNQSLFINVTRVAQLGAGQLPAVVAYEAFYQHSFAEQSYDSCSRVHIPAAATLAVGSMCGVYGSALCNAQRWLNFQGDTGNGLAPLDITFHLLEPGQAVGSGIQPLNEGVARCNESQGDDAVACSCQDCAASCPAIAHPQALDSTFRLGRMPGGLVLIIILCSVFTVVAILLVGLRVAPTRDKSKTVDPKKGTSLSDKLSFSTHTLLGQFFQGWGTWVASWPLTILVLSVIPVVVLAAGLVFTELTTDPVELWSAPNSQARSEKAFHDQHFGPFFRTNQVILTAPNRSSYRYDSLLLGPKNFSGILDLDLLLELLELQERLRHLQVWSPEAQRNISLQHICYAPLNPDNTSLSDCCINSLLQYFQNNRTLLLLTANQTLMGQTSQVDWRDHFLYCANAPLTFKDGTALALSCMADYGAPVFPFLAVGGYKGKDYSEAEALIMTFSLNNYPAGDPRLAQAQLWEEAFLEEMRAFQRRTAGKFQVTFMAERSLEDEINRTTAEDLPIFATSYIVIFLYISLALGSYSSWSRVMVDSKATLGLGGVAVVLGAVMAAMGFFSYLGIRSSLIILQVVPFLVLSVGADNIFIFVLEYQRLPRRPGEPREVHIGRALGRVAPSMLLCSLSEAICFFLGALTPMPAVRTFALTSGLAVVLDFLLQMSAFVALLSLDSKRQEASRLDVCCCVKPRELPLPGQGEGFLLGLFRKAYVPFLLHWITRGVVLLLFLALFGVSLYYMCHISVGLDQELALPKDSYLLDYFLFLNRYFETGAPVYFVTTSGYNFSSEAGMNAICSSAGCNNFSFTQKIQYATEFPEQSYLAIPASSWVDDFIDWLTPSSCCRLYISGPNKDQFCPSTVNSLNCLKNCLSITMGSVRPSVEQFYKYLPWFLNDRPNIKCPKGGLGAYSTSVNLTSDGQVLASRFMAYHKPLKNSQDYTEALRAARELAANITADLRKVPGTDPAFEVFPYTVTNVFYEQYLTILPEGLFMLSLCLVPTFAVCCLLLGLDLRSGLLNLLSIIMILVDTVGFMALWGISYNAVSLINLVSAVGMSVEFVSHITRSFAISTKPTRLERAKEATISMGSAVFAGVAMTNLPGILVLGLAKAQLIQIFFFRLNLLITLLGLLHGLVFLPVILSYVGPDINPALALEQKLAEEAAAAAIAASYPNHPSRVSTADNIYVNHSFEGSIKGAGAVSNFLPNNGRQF
Protocol: The intestines from freshly sacrificed animals were cut into segments, perfused with ice-cold saline buffer (Buffer A: 26 mM NaHCO3, 0.96 mM NaH2PO4, 5 mM HEPES, 5.5 mM glucose, 117 mM NaCl, 5.4 mM KCl, pH=7.4), placed on cold glass plates, opened longitudinally, and the mucosa scraped with glass microscope slips. This mucosa could be used fresh or frozen with identical results. To prepare the membranes, the mucosal scrapings were resuspended in 20 volumes of cold buffer consisting of 300 mM D-mannitol, 5 mM EGTA, 12 mM Tris, pH 7.4 with HCl, and containing 0.1 mM PMSF and a 1% dilution of a protease inhibitor cocktail (set 1, Calbiochem). They were homogenized using a Polytron at medium speed on ice until inspection with a microscope indicated complete cell lysis. Then, solid MgCl2 was added slowly with stirring to a final concentration of 10 mM, and the solution was kept stirring on ice for 15 min. Cellular debris was removed by centrifugation for 15 min at 3,000 g, and the membranes were recovered by centrifugation for 60 min at 48,000 g. The membranes were further rinsed by re-suspension in a buffer containing 50 mM D-mannitol, 5 mM EGTA, and 2 mM Tris at pH 7.40, and centrifugation for 60 min at 48,000 g. The final pellet was resuspended in 120 mM NaCl and 20 mM Tris at pH 7.40 to a concentration of ˜10-20 mg protein/ml, aliquoted, frozen in liquid nitrogen, and stored at −80 C. The activity was stable indefinitely and could be freeze-thawed with minimal loss of activity.
Binding assay. Assays were conducted in 12×75 mm glass test tubes and total volume 20-100 ul. In general, frozen membranes were diluted in buffer A or buffer A containing 0.03% taurocholate and 0.05% digitonin to a final concentration of 0.02 to 5 mg/ml. […] Competing ligands were likewise added as DMSO solutions to give a total 2-10% organic solvent content. […] At least 2 components of buffer A, the bicarbonate and phosphate salts, were later found to be inconsequential and were routinely omitted.
Bound ligand was quantified by single-tube vacuum filtration using GF/C glass fiber filters. […] Filtration was accomplished by adding 2.5 ml of ice cold buffer (120 mM NaCl, 0.1% sodium cholate, and 20 mM MES at pH 6.70) to the assay tube, pouring the mixture through the filter, and then rinsing the tube and filter twice more with another 2×2.5 ml buffer. The filters were counted in 7 ml vials using Packard DM liquid scintillation fluid.
Data analysis. Data from saturation experiments were subjected to a Scatchard analysis, and linear regression was performed to yield the equilibrium dissociation constant (Kd) and maximum receptor concentration (Bmax). […] Data from competition experiments were analyzed and IC50 values determined from Hill plots of the binding data.

[2] = molecular target: T2, human NPC1L1 (Homo sapiens, UniProt Q9UHC9, G1187D/M616T/T1073A); test: ^35S-2 competition binding, human NPC1L1 transfected CHO cells; design: expressed in transfected cells; host or cells: CHO cells (pCDNA3, XbaI/NotI fragment); conditions: for Kd: 5 nM ^35S-2, 2 hours at 37° C., read-out: affinity (Kd) for human recombinant NPC1L1
T2 sequence (Q9UHC9 22-1332 isoform Q9UHC9-2 M616T/T1046A/G1160D limits assumed): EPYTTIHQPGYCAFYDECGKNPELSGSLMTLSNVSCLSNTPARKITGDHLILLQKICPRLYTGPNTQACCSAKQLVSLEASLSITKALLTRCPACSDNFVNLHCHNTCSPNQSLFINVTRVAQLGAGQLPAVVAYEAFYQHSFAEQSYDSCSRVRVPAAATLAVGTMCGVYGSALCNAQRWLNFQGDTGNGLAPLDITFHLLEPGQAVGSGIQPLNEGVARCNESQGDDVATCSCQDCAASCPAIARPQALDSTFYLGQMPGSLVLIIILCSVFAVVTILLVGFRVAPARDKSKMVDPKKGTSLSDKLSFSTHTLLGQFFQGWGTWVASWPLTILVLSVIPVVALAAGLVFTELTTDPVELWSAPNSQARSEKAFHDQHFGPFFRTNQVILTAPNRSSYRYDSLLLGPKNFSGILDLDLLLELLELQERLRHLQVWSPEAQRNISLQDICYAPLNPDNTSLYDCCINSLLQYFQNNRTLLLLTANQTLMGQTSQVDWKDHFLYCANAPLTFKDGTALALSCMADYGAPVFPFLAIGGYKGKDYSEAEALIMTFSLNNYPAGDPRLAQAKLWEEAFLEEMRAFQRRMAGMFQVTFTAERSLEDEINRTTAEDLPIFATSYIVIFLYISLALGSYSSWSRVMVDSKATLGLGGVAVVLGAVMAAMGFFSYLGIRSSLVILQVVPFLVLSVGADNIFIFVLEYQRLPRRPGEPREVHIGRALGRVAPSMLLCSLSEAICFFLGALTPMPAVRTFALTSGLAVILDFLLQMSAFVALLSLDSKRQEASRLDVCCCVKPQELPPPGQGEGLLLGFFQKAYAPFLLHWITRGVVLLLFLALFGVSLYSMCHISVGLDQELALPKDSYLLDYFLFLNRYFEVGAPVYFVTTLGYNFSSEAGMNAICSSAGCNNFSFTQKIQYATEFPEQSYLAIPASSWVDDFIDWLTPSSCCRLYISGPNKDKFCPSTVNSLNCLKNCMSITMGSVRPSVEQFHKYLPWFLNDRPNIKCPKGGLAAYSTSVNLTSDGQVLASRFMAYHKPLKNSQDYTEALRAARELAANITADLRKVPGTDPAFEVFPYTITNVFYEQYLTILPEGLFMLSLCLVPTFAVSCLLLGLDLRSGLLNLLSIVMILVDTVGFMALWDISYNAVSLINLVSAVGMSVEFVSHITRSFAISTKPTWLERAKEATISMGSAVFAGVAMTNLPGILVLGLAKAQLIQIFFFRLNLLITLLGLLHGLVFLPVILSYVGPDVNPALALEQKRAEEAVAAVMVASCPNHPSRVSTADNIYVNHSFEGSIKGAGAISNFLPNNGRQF
Protocol: Human NPC1L1 transfected CHO cells (˜600,000 cells/assay) were incubated with 5 nM ^35S-2 (˜1 million dpm/assay) in buffer A for 2 hours at 37° C. in the absence or presence of increasing concentrations of EZE-glucuronide (compound 1), compounds 2, 3, 5, 6, or 8.

[3] = tested on: cholesterol absorption; conditions: mouse; cited from earlier work

potency relative to ezetimibe glucuronide (1) ([2]; human recombinant NPC1L1) | Compound | Ki [1] [nM] | Kd [2] [nM] | potency (ED50) in vivo [3] [mpk]
approximately 50 fold | CS(=O)(=O)NCC#Cc1ccc(N2C(=O)[C@H](CC[C@H](O)c3ccc(F)cc3)[C@H]2c2ccc(O[C@@H]3O[C@H](C(=O)O)[C@@H](O)[C@H](O)[C@H]3O)cc2)cc1 [Compound 2, 4-[(2S,3R)-3-[(3S)-3 (4-fluorophenyl)-3-hydroxypropyl]-1-(4-{3-[(methylsulfonyl)amino]prop-1-yn-1-yl}phenyl)-4-oxoazetidin-2-yl]phenyl β-D-glucopyranosiduronic acid] | 38 | 21 | 
 | O=C1[C@H](CC[C@H](O)c2ccc(F)cc2)[C@@H](c2ccc(O)cc2)N1c1ccc(F)cc1 [ezetimibe] |  |  | 0.5
 | O=C(O)[C@H]1O[C@@H](Oc2ccc([C@@H]3[C@@H](CC[C@H](O)c4ccc(F)cc4)C(=O)N3c3ccc(F)cc3)cc2)[C@H](O)[C@@H](O)[C@@H]1O [Compound 1, Ezetimibe glucuronide] | 39 | 907 | 

Reference: patent publication US7901893B2, “NPC1L1 (NPC3) and methods of identifying ligands thereof” (Merck Sharp & Dohme Corp., priority 2004, dated 2011)
